The values below come from patent US20240238310A1, “MODULATION OF SEX STEROID HORMONE PRODUCTION AND ACTIVITY FOR TREATING AND PREVENTING HERNIAS” (Northwestern University, priority 2020, published 2024).

Each structure is given as a SMILES string.

For this assay, the system named is LAMT primary fibroblasts from Arom^hum mice. Description: mRNA levels of estrogen-responsive and fibrotic genes in LAMT primary fibroblasts after E2 antagonist treatment. To be noted: 100 nM ICI 182,780, pretreated 2 hours before addition of E2 (10 nM). The assay is classed as cell-based, mouse. The procedure:
FIG. 10. mRNA levels of estrogen-responsive genes [Pgr (A, E) and Greb1 (B, F)] and fibrotic genes [Spon2 (C, G), Kiss1 (D), and Eln (H)] in LAMT primary fibroblasts from Arom^hum mice after treatment with 100 nM ICI 182,780 (ICI) or […] MPP in the presence or absence of E2 (10 nM). Cells were pretreated with ICI 182,780 or MPP for 2 hours before the addition of E2. Veh, vehicle. *P<0.05, **P<0.01. GAPDH mRNA levels served as controls.
Experiment 1a2: Does the general E2 antagonist fulvestrant, which downregulates and blocks ER, or ERα-selective E2 antagonist MPP prevent, arrest or reverse LAMT muscle fibrosis, atrophy and inguinal hernias in male Arom^hum mice? […] Here, we will define whether the effects of E2 on hernia formation in LAMT is mediated via ERα in vivo. We will treat Arom^hum or WT mice with vehicle, fulvestrant (ICI 182,780), or MPP. […] Circulating and muscle tissue E2 levels will be measured using LC-MS^2. To validate the effects of each treatment, protein expression of ERα and E2/ERα target genes (Ccnd1, Pgr, and Greb1), and cell proliferation markers (Ki67 and PCNA) will be determined by IHC and immunoblotting. Fibrotic-related genes (Kiss1, Ren1, Emb, Timp1, Spon2, and Eln), the ECM marker Col1a1, and the myocyte marker Myh will be assessed using qPCR and IHC in LAMT after fulvestrant, MPP, and/or letrozole treatment. […]

For `C[C@]12CC[C@@H]3c4ccc(O)cc4C[C@@H](CCCCCCCCC[S+]([O-])CCCC(F)(F)C(F)(F)F)[C@H]3[C@@H]1CC[C@@H]2O` (stereo partly shown) [fulvestrant], the “E2-induced expression of estrogen-responsive genes (Pgr and Greb1) and fibrotic genes (Spon2, Kiss1, Eln)” value was “significantly decreased E2-induced expression of estrogen-responsive genes (Pgr and Greb1) and fibrotic genes (Spon2, Kiss1 and, Eln)”.
